A word on the EC50: it is the concentration at which the effect is half-maximal. A word on the melting point: it is the temperature of the solid-liquid transition.

From PMC6476926, “Dichloro-Phenyl-Benzotriazoles: A New Selective Class of Human Respiratory Syncytial Virus Entry Inhibitors” (Frontiers in Chemistry, 2019) come the findings set out here.

In data set [1] the test system is RSV. Put plainly: microbe, parasite or virus in culture. In kind it is cell-based, Human Respiratory Syncytial Virus (RSV) strain A2. As to conditions: human respiratory syncytial virus, Vero 76, read-out: EC50 RSV.
In data set [2] the test system is HIV-1IIIB. Put plainly: microbe, parasite or virus in culture. In kind it is cell-based, Human Immunodeficiency Virus type-1 (HIV-1). The note with it: Human immunodeficiency virus 1, MT4, read-out: EC50 HIV-1IIIB.
Data set [3] deals with BVDV. Put plainly: microbe, parasite or virus in culture. The format is cell-based. As to conditions: Bovine viral diarrhea virus isolates and strains, MDBK, read-out: EC50 BVDV.
Data set [4] deals with YFV. Put plainly: microbe, parasite or virus in culture. In kind it is cell-based. As to conditions: Yellow fever virus, BHK, read-out: EC50 YFV.
Data set [5] has as its system Reo-1. Put plainly: microbe, parasite or virus in culture. In kind it is cell-based, Reovirus type-1 (Reo-1). As to conditions: Reovirus sp., BHK, read-out: EC50 Reo-1.
Data set [6] concerns CV-B5. The data set is described as follows: microbe, parasite or virus in culture. In kind it is cell-based, Human Enterovirus B [coxsackie type B5 (CV-B5)]. As to conditions: Enterovirus B, CVB5, Vero 76, read-out: EC50 CV-B5.
Data set [7] relates to Sb-1, VSV, VV, HSV-1. The data set is described as follows: organism not typed. In kind it is cell-based. As to conditions: Vero 76, read-out: EC50 Sb-1, VSV, VV, HSV-1.
Data set [8] can be described thus: in vitro. As to conditions: cattle (Bos taurus).
A short description of data set [9]: Cytotoxicity, MTT method, BHK cells. As to conditions: Syrian hamster (Mesocricetus auratus).
Data set [10] in a line: Cytotoxicity, MTT method, MT-4 cells. The note with it: human. For orientation: Tetrazolium assays rely on reduction of a dye to a coloured formazan, in cell work by metabolically active cells.
Data set [11] is described as follows: Cytotoxicity, MTT method, Vero-76 cells. As to conditions: African green monkey (Cercopithecus aethiops).

On to `CC(=O)Nc1ccc(-n2nnc3cc(Cl)c(Cl)cc32)cc1` [5a, N-[4-(5,6-dichloro-1H-benzo[d][1,2,3]triazol-1-yl)phenyl]acetamide], for which the melting point was in the range of 209 to 211 °C. Besides, the concentration for a half-maximal effect (EC50) in data set [1] was 3 µM. Also, in [2], the half-maximal effective concentration (EC50) is above 35 µM. The EC50 in data set [3] was above 43 µM. Moreover, the concentration giving a half-maximal response (EC50) in data set [4] was above 53 µM. In [5], the EC50 is above 53 µM. The EC50 in data set [6] is 17 µM. Besides, in data set [7], the EC50 is above 30 µM. In addition, the CC50 in [8] is 43 µM. For the same compound, the CC50 in [9] is 53 µM. Also, in data set [10], the CC50 was determined as 35 µM. The CC50 at 5 days in data set [11] was found to be 30 µM.
The compound `CCCC(=O)Nc1ccc(-n2nc3cc(Cl)c(Cl)cc3n2)cc1` [6c, N-[4-(5,6-dichloro-2H-benzo[d][1,2,3]triazol-2-yl)phenyl]butanamide] registered a melting point of 243 to 245 °C. For the same compound, the EC50 in data set [1] was above 100 µM. The EC50 in data set [2] was above 100 µM. The EC50 in data set [3] is above 100 µM. Further, the concentration giving a half-maximal response (EC50) in [4] was above 100 µM. Also, the EC50 in data set [5] is above 100 µM. In data set [6], the 50% effective concentration (EC50) was above 100 µM. In addition, the concentration for a half-maximal effect (EC50) in [7] was above 100 µM. Also, in data set [8], the CC50 is above 100 µM. The compound further displayed a CC50 in data set [9] above 100 µM. The compound also returned a CC50 in [10] above 100 µM. Also, in data set [11], the CC50 at 5 days is above 100 µM.
With `CCCCNC(=O)Nc1ccc(-n2nc3cc(Cl)c(Cl)cc3n2)cc1` [10c, 1-[4-(5,6-dichloro-2H-benzo[d][1,2,3]triazol-2-yl)phenyl]-3-butylurea], the melting point is above 300 °C. For the same compound, in data set [1], the half-maximal effective concentration (EC50) is above 100 µM. The 50% effective concentration (EC50) in data set [2] was above 100 µM. For the same compound, the EC50 in [3] was above 100 µM. Moreover, the EC50 in data set [4] was above 100 µM. The half-maximal effective concentration (EC50) in data set [5] was above 100 µM. For the same compound, the EC50 in data set [6] was above 95 µM. Besides, the EC50 in data set [7] is above 95 µM. The CC50 in data set [8] was above 100 µM. Further, the CC50 in data set [9] was above 100 µM. Besides, the CC50 in [10] is above 100 µM. Further, in data set [11], the CC50 came to 90 µM and the CC50 at 5 days was above 100 µM.
`O=C(Nc1ccc(-n2nnc3cc(Cl)c(Cl)cc32)cc1)c1ccccc1` [7a, N-[4-(5,6-dichloro-1H-benzo[d][1,2,3]triazol-1-yl)phenil]benzamide] gave a melting point of 250 to 252 °C. Moreover, the EC50 in [1] was determined as 60 µM. Besides, in data set [2], the EC50 was above 100 µM. The EC50 in data set [3] is above 100 µM. The half-maximal effective concentration (EC50) in data set [4] is above 44 µM. The EC50 in data set [5] is above 44 µM. Besides, in data set [6], the concentration giving a half-maximal response (EC50) is above 100 µM. Besides, in [7], the EC50 was above 100 µM. This compound yielded a CC50 in data set [8] above 100 µM. Further, the CC50 in [9] was found to be 44 µM. In [10], the CC50 was above 100 µM. In data set [11], this compound gave a CC50 at 5 days above 100 µM.
With `CC(=O)N(C(C)=O)c1ccc(-n2nc3cc(Cl)c(Cl)cc3n2)cc1` [6d, N-acetyl-N-[4-(5,6-dichloro-2H-benzo[d][1,2,3]triazol-2-yl)phenyl]acetamide], the melting point is 224 to 226 °C. The EC50 in data set [1] came to 40 µM. Besides, the EC50 in [2] was above 33 µM. Also, the EC50 in data set [3] is above 100 µM. In data set [4], the EC50 is above 72 µM. In addition, the EC50 in [5] is above 100 µM. In addition, the EC50 in data set [6] is above 100 µM. For the same compound, the EC50 in [7] is above 100 µM. The CC50 in [8] came to 100 µM. In [9], this compound displayed a CC50 of 72 µM. This compound displayed a CC50 in data set [10] of 33 µM. Besides, the CC50 at 5 days in data set [11] is above 100 µM.
`O=C(Nc1ccc(-n2nc3cc(Cl)c(Cl)cc3n2)cc1)c1ccc(Cl)cc1` [8f, N-[4-(5,6-dichloro-2H-benzo[d][1,2,3]triazol-2-yl)PHENYL] 4-chlorobenzamide] registered a melting point of 268 to 270 °C. Besides, the EC50 in [1] was 20 µM. Moreover, the concentration giving a half-maximal response (EC50) in [2] was above 100 µM. For the same compound, the EC50 in data set [3] was found to be 60 µM. The EC50 in [4] was above 100 µM. Moreover, the concentration for a half-maximal effect (EC50) in data set [5] is above 100 µM. Moreover, the concentration for a half-maximal effect (EC50) in data set [6] is above 100 µM. Moreover, the EC50 in [7] was above 100 µM. In addition, in data set [8], the CC50 was above 100 µM. Also, the CC50 in [9] is above 100 µM. In data set [10], this compound came in with a CC50 above 100 µM. Moreover, in data set [11], the CC50 at 5 days worked out at 80 µM.
`O=C(Nc1ccc(-n2nnc3cc(Cl)c(Cl)cc32)cc1)c1ccc(Cl)cc1` [7f, N-[4-(5,6-dichloro-1H-benzo[d][1,2,3]triazol-1-yl)phenyl] 4-chlorobenzamide]: the melting point lay in the range of 234 to 236 °C. Besides, the concentration giving a half-maximal response (EC50) in data set [1] was 8 µM. Moreover, the 50% effective concentration (EC50) in data set [2] was above 100 µM. For the same compound, the concentration for a half-maximal effect (EC50) in [3] is above 100 µM. Besides, in [4], the concentration giving a half-maximal response (EC50) was above 84 µM. Further, in data set [5], the EC50 was above 84 µM. The EC50 in data set [6] is above 100 µM. Besides, the concentration giving a half-maximal response (EC50) in data set [7] is above 100 µM. This compound gave a CC50 in [8] above 100 µM. In data set [9], this compound gave a CC50 of 84 µM. This compound also came in with a CC50 in data set [10] above 100 µM. Also, the CC50 at 5 days in data set [11] is above 100 µM.
For the compound `O=C(Nc1ccc(-n2nc3cc(Cl)c(Cl)cc3n2)cc1)c1ccc(C(F)(F)F)cc1` [8g, N-[4-(5,6-dichloro-2H-benzo[d][1,2,3]triazol-2-yl)phenyl]-4-(trifluoromethyl)benzamide], the melting point is 210 to 212 °C. Besides, in [1], the half-maximal effective concentration (EC50) came to 50 µM. In data set [2], the concentration giving a half-maximal response (EC50) is above 100 µM. Moreover, the EC50 in data set [3] was 28 µM. The concentration giving a half-maximal response (EC50) in data set [4] is above 100 µM. For the same compound, the concentration giving a half-maximal response (EC50) in [5] is above 100 µM. In addition, the EC50 in data set [6] is above 100 µM. The half-maximal effective concentration (EC50) in data set [7] was above 100 µM. In data set [8], the CC50 was above 100 µM. Moreover, the CC50 in data set [9] was above 100 µM. The compound also had a CC50 in [10] above 100 µM. This compound gave a CC50 at 5 days in [11] above 100 µM.
With `O=C(Nc1ccccc1)Nc1ccc(-n2nc3cc(Cl)c(Cl)cc3n2)cc1` [10e, 1-[4-(5,6-dichloro-2H-benzo[d][1,2,3]triazol-2-yl)phenyl]-3-phenylurea], the melting point was above 290 °C. Also, in data set [1], the EC50 is above 100 µM. For the same compound, the EC50 in data set [2] is above 100 µM. In addition, the half-maximal effective concentration (EC50) in data set [3] was above 100 µM. In addition, the concentration giving a half-maximal response (EC50) in [4] is above 100 µM. The EC50 in data set [5] was above 100 µM. For the same compound, the EC50 in data set [6] was above 100 µM. In [7], the EC50 is above 100 µM. Further, the CC50 in data set [8] was above 100 µM. Further, the CC50 in data set [9] was above 100 µM. The CC50 in data set [10] is above 100 µM. In addition, the CC50 at 5 days in data set [11] is above 100 µM.
In the case of `O=C(Nc1ccc(F)cc1)Nc1ccc(-n2nc3cc(Cl)c(Cl)cc3n2)cc1` [10i, 1-[4-(5,6-dichloro-2H-benzo[d][1,2,3]triazol-2-yl)phenyl]-3-(4-fluorophenyl)urea], the melting point was above 290 °C. For the same compound, the concentration giving a half-maximal response (EC50) in data set [1] was above 100 µM. Besides, the 50% effective concentration (EC50) in [2] was above 100 µM. Moreover, the EC50 in data set [3] is above 100 µM. Further, the concentration for a half-maximal effect (EC50) in data set [4] is above 100 µM. Also, in [5], the EC50 is above 100 µM. The concentration for a half-maximal effect (EC50) in data set [6] is above 100 µM. Besides, the EC50 in data set [7] was above 100 µM. Moreover, the CC50 in data set [8] is above 100 µM. The same compound registered a CC50 in data set [9] above 100 µM. For the same compound, the CC50 in [10] is above 100 µM. This compound also displayed a CC50 at 5 days in data set [11] above 100 µM.
In the case of `CCCC(=O)N(C(=O)CCC)c1ccc(-n2nc3cc(Cl)c(Cl)cc3n2)cc1` [6f, N-butyryl-N-[4-(5,6-dichloro-2H-benzo[d][1,2,3]triazol-2-yl)phenyl] butyramide], the melting point lay within 130 to 133 °C. In data set [1], the EC50 worked out at 6 µM. The half-maximal effective concentration (EC50) in data set [2] was above 24 µM. Besides, in data set [3], the EC50 is above 84 µM. Besides, the EC50 in [4] is above 62 µM. Also, in data set [5], the EC50 was above 26 µM. In addition, in [6], the EC50 worked out at 33 µM. In addition, the half-maximal effective concentration (EC50) in data set [7] was above 100 µM. The CC50 in data set [8] amounted to 84 µM. In data set [9], this compound showed a CC50 of 62 µM. In [10], this compound had a CC50 of 24 µM. Further, the CC50 at 5 days in data set [11] is above 100 µM.
